How the values were obtained:
[1] = molecular target: Tyk2 (Homo sapiens (Human), UniProt P29597); assay: Biochemical Tyk2 kinase assay (LanthaScreen)
Experimental: (§1) Assay 1: Biochemical JAK and Tyk2 Kinase Assays
(§2) A panel of four LanthaScreen JAK biochemical assays (JAK1, 2, 3 and Tyk2) were carried in a common kinase reaction buffer (50 mM HEPES, pH 7.5, 0.01% Brij-35, 10 mM MgCl2, and 1 mM EGTA). Recombinant GST-tagged JAK enzymes and a GFP-tagged STAT1 peptide substrate were obtained from Life Technologies.
(§3) Serially or discretely diluted compounds were pre-incubated with each of the four JAK enzymes and the substrate in white 384-well microplates (Corning) at ambient temperature for 1 h. ATP was subsequently added to initiate the kinase reactions in 10 μL total volume, with 1% DMSO. […] Kinase reactions were allowed to proceed for 1 hour at ambient temperature before a 10 μL preparation of EDTA (10 mM final concentration) and Tb-anti-pSTAT1 (pTyr701) antibody (Life Technologies, 2 nM final concentration) in TR-FRET dilution buffer (Life Technologies) was added. The plates were allowed to incubate at ambient temperature for 1 h before being read on the EnVision reader (Perkin Elmer). Emission ratio signals (520 nm/495 nm) were recorded and utilized to calculate the percent inhibition values based on DMSO and background controls.
(§4) For dose-response analysis, percent inhibition data were plotted vs. compound concentrations, and IC50 values were determined from a 4-parameter robust fit model with the Prism software (GraphPad Software). Results were expressed as pIC50 (negative logarithm of IC50) and subsequently converted to pKi (negative logarithm of dissociation constant, Ki) using the Cheng-Prusoff equation.

[2] = tested on: IL-2 stimulated STAT5 phosphorylation in Tall-1 human T cell line (JAK3); assay: Cellular JAK3 potency assay: inhibition of IL-2 stimulated pSTAT5 in Tall-1 T cells; assay type: cell-based
Experimental: Assay 2: Cellular JAK3 Potency Assay: Inhibition of IL-2 Stimulated pSTAT5 in Tall-1 T Cells
The potency of test compounds for inhibition of interleukin-2 (IL-2) stimulated STAT5 phosphorylation was measured in the Tall-1 human T cell line (DSMZ) using AlphaLisa. Because IL-2 signals through JAK3, this assay provides a measure of JAK3 cellular potency.
Phosphorylated STAT5 was measured via the AlphaLISA SureFire Ultra pSTAT5 (Tyr694/699) kit (PerkinElmer).
Human T cells from the Tall-1 cell line were cultured in a 37° C., 5% CO2 humidified incubator in RPMI (Life Technologies) supplemented with 15% Heat Inactivated Fetal Bovine Serum (FBS, Life Technologies), 2 mM Glutamax (Life Technologies), 25 mM HEPES (Life Technologies) and 1× Pen/Strep (Life Technologies). Compounds were serially diluted in DMSO and dispensed acoustically to empty wells. Assay media (phenol red-free DMEM (Life Technologies) supplemented with 10% FBS (ATCC)) was dispensed (4 μL/well) and plates shaken at 900 rpm for 10 inns. Cells were seeded at 45,000 cells/well in assay media (4 μL/well), and incubated at 37° C., 5% CO2 for 1 hour, followed by the addition of IL-2 (R&D Systems; final concentration 300 ng/ml) in pre-warmed assay media (4 μL) for 30 minutes. After cytokine stimulation, cells were lysed with 6 ul of 3× AlphaLisa Lysis Buffer (PerkinElmer) containing 1× PhosStop and Complete tablets (Roche). The lysate was shaken at 900 rpm for 10 minutes at room temperature (RT). Phosphorylated STAT5 was measured via the pSTAT5 AlphaLisa kit (PerkinElmer). Freshly prepared acceptor bead mixture was dispensed onto lysate (5 μL) under green filtered <100 lux light. Plates were shaken at 900 rpm for 2 mins, briefly spun down, and incubated for 2 hrs at RT in the dark. Donor beads were dispensed (5 μL) under green filtered <100 lux light. Plates were shaken at 900 rpm for 2 minutes, briefly spun down, and incubated overnight at RT in the dark. Luminescence was measured with excitation at 689 nm and emission at 570 nm using an EnVision plate reader (PerkinElmer) under green filtered <100 lux light.
To determine the inhibitory potency of test compounds in response to IL-2, the average emission intensity of beads bound to pSTAT5 was measured in a human T cell line. IC50 values were determined from analysis of the inhibition curves of signal intensity versus compound concentration. Data are expressed as pIC50 (negative decadic logarithm IC50) values (mean standard deviation).

[3] = molecular target: JAK3 (Homo sapiens (Human), UniProt P52333); assay: Biochemical JAK3 kinase assay (LanthaScreen)
JAK3, sequence (P52333 whole entry): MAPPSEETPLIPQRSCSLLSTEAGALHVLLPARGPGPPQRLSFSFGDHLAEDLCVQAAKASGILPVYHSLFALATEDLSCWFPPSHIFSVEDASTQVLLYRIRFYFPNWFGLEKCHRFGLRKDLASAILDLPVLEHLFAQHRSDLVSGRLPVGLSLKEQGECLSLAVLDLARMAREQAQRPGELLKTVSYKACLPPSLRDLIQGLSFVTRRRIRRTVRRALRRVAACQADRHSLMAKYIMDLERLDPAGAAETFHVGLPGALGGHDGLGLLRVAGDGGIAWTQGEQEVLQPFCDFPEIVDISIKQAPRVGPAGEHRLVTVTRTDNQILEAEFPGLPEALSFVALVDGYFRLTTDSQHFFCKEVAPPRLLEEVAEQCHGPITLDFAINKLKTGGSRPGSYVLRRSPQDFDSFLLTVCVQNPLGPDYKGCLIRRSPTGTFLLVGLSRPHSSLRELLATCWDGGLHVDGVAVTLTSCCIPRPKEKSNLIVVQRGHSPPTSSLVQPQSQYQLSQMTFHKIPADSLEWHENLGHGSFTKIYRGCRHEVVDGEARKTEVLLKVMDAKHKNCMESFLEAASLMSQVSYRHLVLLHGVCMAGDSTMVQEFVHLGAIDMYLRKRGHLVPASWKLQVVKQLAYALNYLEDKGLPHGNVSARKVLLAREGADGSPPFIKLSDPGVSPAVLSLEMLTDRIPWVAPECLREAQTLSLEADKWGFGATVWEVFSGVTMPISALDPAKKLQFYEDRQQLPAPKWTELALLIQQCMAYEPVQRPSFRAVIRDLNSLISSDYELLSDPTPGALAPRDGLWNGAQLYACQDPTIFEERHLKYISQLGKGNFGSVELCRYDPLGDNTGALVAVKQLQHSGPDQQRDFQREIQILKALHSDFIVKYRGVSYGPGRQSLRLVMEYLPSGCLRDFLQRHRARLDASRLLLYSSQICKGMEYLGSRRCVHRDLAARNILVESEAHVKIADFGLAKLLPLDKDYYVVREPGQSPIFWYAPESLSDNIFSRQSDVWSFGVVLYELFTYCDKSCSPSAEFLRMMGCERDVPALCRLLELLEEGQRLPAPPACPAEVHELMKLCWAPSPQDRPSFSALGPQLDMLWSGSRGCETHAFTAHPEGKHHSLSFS
Experimental: as §1, §2, §3, §4

[4] = molecular target: JAK1 (Homo sapiens (Human), UniProt P23458); assay: Biochemical JAK1 kinase assay (LanthaScreen)
JAK1, sequence (P23458 whole entry): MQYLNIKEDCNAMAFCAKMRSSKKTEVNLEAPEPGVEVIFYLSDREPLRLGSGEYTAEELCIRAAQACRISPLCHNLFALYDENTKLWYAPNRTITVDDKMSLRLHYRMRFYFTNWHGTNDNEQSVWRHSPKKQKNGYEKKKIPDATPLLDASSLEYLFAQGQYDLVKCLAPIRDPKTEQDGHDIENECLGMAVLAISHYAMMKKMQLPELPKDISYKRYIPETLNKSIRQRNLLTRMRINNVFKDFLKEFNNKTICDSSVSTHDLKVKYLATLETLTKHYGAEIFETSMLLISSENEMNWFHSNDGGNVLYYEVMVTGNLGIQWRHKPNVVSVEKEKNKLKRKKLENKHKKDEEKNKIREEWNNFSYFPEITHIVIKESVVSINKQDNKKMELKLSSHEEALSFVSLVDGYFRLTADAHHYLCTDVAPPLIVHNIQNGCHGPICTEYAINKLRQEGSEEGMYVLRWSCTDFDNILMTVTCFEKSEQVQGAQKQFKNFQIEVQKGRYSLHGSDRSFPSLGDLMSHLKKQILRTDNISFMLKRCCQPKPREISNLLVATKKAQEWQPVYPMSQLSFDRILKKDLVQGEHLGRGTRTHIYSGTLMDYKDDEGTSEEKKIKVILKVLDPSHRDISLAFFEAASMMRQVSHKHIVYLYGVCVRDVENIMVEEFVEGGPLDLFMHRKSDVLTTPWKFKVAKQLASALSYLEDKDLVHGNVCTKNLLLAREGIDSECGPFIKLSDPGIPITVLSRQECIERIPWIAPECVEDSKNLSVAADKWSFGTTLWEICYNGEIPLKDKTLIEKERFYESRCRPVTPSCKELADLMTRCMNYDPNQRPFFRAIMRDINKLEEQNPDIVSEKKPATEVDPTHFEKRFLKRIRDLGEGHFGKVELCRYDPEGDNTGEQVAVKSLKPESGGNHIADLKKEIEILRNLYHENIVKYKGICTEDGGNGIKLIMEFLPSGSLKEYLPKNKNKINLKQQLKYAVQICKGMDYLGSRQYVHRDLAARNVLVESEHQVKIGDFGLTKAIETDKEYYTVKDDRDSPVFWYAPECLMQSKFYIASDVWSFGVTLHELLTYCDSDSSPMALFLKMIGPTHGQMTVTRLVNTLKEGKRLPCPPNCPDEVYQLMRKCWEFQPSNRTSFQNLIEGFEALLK
Experimental: as §1, §2, §3, §4

[5] = molecular target: JAK2 (Homo sapiens (Human), UniProt O60674); assay: Biochemical JAK2 kinase assay (LanthaScreen)
JAK2, sequence (O60674 whole entry): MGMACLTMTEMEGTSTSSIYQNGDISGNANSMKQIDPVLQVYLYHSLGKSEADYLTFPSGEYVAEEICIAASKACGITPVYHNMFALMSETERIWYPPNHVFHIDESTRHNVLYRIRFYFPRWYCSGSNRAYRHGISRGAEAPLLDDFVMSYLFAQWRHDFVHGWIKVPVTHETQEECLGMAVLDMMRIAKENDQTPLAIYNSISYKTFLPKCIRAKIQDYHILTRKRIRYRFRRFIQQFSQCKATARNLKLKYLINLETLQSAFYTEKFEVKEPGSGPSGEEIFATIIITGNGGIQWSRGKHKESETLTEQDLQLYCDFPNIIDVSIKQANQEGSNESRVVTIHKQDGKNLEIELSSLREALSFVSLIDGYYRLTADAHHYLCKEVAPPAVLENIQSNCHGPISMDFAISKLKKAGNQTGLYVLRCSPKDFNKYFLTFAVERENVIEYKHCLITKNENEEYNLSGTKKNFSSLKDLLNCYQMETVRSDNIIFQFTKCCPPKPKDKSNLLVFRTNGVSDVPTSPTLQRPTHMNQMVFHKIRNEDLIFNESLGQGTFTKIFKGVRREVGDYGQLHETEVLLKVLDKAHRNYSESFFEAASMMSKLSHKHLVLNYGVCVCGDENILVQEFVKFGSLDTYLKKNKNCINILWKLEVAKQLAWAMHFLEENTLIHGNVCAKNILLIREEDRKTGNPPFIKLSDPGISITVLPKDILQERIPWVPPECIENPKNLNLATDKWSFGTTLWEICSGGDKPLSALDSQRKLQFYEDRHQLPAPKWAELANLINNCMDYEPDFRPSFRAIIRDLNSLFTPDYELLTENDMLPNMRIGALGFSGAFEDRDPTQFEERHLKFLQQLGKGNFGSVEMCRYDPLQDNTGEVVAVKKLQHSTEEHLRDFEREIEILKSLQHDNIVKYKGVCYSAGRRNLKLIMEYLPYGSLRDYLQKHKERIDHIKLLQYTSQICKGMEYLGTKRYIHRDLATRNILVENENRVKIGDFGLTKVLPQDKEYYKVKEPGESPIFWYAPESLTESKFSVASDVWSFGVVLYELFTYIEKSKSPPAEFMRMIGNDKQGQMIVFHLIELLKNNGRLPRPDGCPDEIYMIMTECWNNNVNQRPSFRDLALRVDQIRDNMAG
Experimental: as §1, §2, §3, §4

[6] = IL-2 stimulated pSTAT5, Tall-1 T cells
[7] = selectivity JAK3 over JAK1, difference of pKi
[8] = IL-2 stimulated pSTAT5 in Tall-1 T cells
[9] = selectivity, difference of pKi values

Tyk2, sequence (P29597 whole entry): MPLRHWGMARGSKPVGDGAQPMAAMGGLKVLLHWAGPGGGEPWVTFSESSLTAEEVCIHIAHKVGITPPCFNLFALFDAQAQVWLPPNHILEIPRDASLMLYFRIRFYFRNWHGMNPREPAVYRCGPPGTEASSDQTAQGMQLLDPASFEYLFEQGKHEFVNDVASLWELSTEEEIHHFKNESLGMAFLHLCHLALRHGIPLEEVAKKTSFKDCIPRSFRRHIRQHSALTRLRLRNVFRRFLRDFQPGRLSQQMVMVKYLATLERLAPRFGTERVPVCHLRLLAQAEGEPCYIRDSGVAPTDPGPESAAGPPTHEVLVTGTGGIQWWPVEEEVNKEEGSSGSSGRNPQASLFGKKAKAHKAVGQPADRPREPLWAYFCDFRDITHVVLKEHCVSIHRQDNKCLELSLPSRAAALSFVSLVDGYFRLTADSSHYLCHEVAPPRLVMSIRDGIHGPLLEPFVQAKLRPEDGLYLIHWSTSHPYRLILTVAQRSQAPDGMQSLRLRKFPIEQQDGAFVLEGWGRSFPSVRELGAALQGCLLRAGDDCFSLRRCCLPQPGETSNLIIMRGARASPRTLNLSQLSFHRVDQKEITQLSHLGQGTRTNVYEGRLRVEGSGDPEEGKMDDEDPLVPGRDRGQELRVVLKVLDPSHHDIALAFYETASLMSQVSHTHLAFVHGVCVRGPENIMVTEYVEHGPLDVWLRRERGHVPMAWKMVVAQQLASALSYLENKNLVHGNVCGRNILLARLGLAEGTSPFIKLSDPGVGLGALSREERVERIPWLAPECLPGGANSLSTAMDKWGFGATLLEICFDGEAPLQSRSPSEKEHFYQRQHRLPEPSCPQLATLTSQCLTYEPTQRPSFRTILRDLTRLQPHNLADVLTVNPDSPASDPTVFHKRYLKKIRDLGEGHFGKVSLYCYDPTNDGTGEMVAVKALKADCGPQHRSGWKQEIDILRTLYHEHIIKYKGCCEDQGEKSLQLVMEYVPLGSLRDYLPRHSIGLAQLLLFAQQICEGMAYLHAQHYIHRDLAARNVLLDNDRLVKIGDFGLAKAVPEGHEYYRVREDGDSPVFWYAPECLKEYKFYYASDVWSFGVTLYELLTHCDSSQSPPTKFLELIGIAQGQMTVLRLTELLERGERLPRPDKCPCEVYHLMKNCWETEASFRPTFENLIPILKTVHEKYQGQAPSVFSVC

| SMILES | Tyk 2 (pKi) [1] | Tall-1 (pIC50) [2, 6] | JAK 3 (pKi) [3] | JAK3 (pKi)-JAK1 (pKi) [3, 7] | JAK 1 (pKi) [4] | JAK 2 (pKi) [5] | Tall-1 (pIC50) [2, 8] | JAK3 (pKi)-JAK1 (pKi) [3, 9] |
| --- | --- | --- | --- | --- | --- | --- | --- | --- |
| C=CC(=O)N1CC(CCn2c(=O)ccc3cnc(Nc4ccc(N5CCN(C)CC5)c(C#N)c4)nc32)C1 [Example 9, 5-((8-(2-(1-acryloylazetidin-3-yl)ethyl)-7-oxo-7,8-dihydropyrido[2,3-d]pyrimidin-2-yl)amino)-2-(4-methylpiperazin-1-yl)benzonitrile] | E (E represents a pKi value of 7 or below (Ki of 100 nM or above)) | B (B represents a pC50 value between 6.7 (included) and 7.5 (IC50 between 200 nM and 32 nM)) | B (B represents pKi value between 9 and 10 (Ki between 1 nM and 0.1 nM)) | A (A represents a value of 3 or above) | E (E represents a pKi value of 7 or below (Ki of 100 nM or above)) | E (E represents a pKi value of 7 or below (Ki of 100 nM or above)) | – | – |
| CN(C)C/C=C/C(=O)N1CC(CCn2c(=O)ccc3cnc(Nc4ccc(N5CCN(C)CC5)cn4)cc32)C1 [Example 11, (E)-1-(2-(1-(4-(dimethylamino)but-2-enoyl)azetidin-3-yl)ethyl)-7-((5-(4-methylpiperazin-1-yl)pyridin-2-yl)amino)-1,6-naphthyridin-2(1H)-one] | E (E represents a pKi value of 7 or below (Ki of 100 nM or above)) | B (B represents a pC50 value between 6.7 (included) and 7.5 (IC50 between 200 nM and 32 nM)) | B (B represents pKi value between 9 and 10 (Ki between 1 nM and 0.1 nM)) | A (A represents a value of 3 or above) | E (E represents a pKi value of 7 or below (Ki of 100 nM or above)) | E (E represents a pKi value of 7 or below (Ki of 100 nM or above)) | – | – |
| C=CC(=O)N1CC(CCn2c(=O)ccc3cnc(Nc4ccc(N5CCN(C)CC5)c(Cl)c4)nc32)C1 [Example 17] | E (E represents a pKi value of 7 or below (Ki of 100 nM or above)) | B (B represents a pC50 value between 6.7 (included) and 7.5 (IC50 between 200 nM and 32 nM)) | B (B represents pKi value between 9 and 10 (Ki between 1 nM and 0.1 nM)) | A (A represents a value of 3 or above) | E (E represents a pKi value of 7 or below (Ki of 100 nM or above)) | E (E represents a pKi value of 7 or below (Ki of 100 nM or above)) | – | – |
| C=CC(=O)N1CCN(CCn2c(=O)ccc3cnc(Nc4ccn(CC)n4)nc32)[C@@H](CC)C1 [Example 256] | – | – | B (B represents pKi value between 9 and 10 (Ki between 1 nM and 0.1 nM)) | – | E (E represents a pKi value of 7 or below (Ki of 100 nM or above)) | – | C (C represents a pIC50 value between 6 and 6.7 (IC50 between 1 μM and 200 nM)) | A (A represents a value of 3 or above) |
| C=CC(=O)N1CC(CCn2c(=O)ccc3cnc(Nc4ccn(C(C)C)n4)nc32)C1 [Example 257] | – | – | B (B represents pKi value between 9 and 10 (Ki between 1 nM and 0.1 nM)) | – | E (E represents a pKi value of 7 or below (Ki of 100 nM or above)) | – | B (B represents a pC50 value between 6.7 (included) and 7.5 (IC50 between 200 nM and 32 nM)) | A (A represents a value of 3 or above) |
| C=CC(=O)N1CCN(CCn2c(=O)ccc3cnc(Nc4ccn(C(C)C)n4)nc32)[C@@H](C)C1 [Example 258] | – | – | B (B represents pKi value between 9 and 10 (Ki between 1 nM and 0.1 nM)) | – | E (E represents a pKi value of 7 or below (Ki of 100 nM or above)) | – | C (C represents a pIC50 value between 6 and 6.7 (IC50 between 1 μM and 200 nM)) | A (A represents a value of 3 or above) |
| C=CC(=O)N1CCN(CCn2c(=O)ccc3cnc(Nc4ccn(C(C)C)n4)nc32)[C@@H](CC)C1 [Example 259] | – | – | B (B represents pKi value between 9 and 10 (Ki between 1 nM and 0.1 nM)) | – | E (E represents a pKi value of 7 or below (Ki of 100 nM or above)) | – | C (C represents a pIC50 value between 6 and 6.7 (IC50 between 1 μM and 200 nM)) | A (A represents a value of 3 or above) |
| C=CC(=O)N1CC(C)(CCn2c(=O)ccc3cnc(Nc4ccc(N5CCN(C)CC5)cc4)nc32)C1 [Example 260] | – | – | B (B represents pKi value between 9 and 10 (Ki between 1 nM and 0.1 nM)) | – | E (E represents a pKi value of 7 or below (Ki of 100 nM or above)) | – | A (A represents a pIC50 value≥7.5 (IC50≤32 nM)) | A (A represents a value of 3 or above) |
| C=CC(=O)N1CCN(CCn2c(=O)ccc3cnc(Nc4cnn(C)c4)nc32)[C@@H](CC#N)C1 [Example 261] | – | – | B (B represents pKi value between 9 and 10 (Ki between 1 nM and 0.1 nM)) | – | E (E represents a pKi value of 7 or below (Ki of 100 nM or above)) | – | B (B represents a pC50 value between 6.7 (included) and 7.5 (IC50 between 200 nM and 32 nM)) | A (A represents a value of 3 or above) |
| C=CC(=O)N1CCN(CCn2c(=O)ccc3cnc(Nc4cnn(C)c4)nc32)[C@@H](CN(C)C)C1 [Example 262] | – | – | C (C represents a pKi value between 8 and 9 (Ki between 10 nM and 1 nM)) | – | E (E represents a pKi value of 7 or below (Ki of 100 nM or above)) | – | C (C represents a pIC50 value between 6 and 6.7 (IC50 between 1 μM and 200 nM)) | B (B represents a value of 2.5 to 3) |
| C=CC(=O)N1CCN(CCn2c(=O)ccc3cnc(Nc4ccc(N5C[C@@H](C)N(C)[C@H](C)C5)cc4)nc32)[C@@H](CC)C1 [Example 263] | – | – | B (B represents pKi value between 9 and 10 (Ki between 1 nM and 0.1 nM)) | – | E (E represents a pKi value of 7 or below (Ki of 100 nM or above)) | – | A (A represents a pIC50 value≥7.5 (IC50≤32 nM)) | A (A represents a value of 3 or above) |
| C=CC(=O)N1CC(CCn2c(=O)ccc3cnc(Nc4ccc(N5C[C@@H](C)N(C)[C@H](C)C5)cc4)nc32)C1 [Example 264] | – | – | B (B represents pKi value between 9 and 10 (Ki between 1 nM and 0.1 nM)) | – | E (E represents a pKi value of 7 or below (Ki of 100 nM or above)) | – | A (A represents a pIC50 value≥7.5 (IC50≤32 nM)) | A (A represents a value of 3 or above) |

Reference: patent publication US11697648B2, “Fused pyrimidine pyridinone compounds as JAK inhibitors” (THERAVANCE BIOPHARMA R&D IP, LLC, priority 2019, dated 2023)
